Measured values from patent US20240368156A1, “2-AZABICYCLO[2.2.1]HEPTANE KRAS INHIBITORS” (INCYTE CORPORATION, priority 2023, published 2024).

Columns and labels:
KRAS G12V = KRAS G12V (Homo sapiens, UniProt P01116, G12V); assay: GDP-GTP exchange assay (bodipy-GDP/GppNHp, SOS1), KRAS G12V; type: biochemical; details: 2.5 nM bodipy-loaded KRAS G12V, 3 h incubation after adding GppNHp-SOS1; for certain compounds the most potent isomer is quoted; read-out: KRAS_G12V exchange assay IC50
Protocol: (§1) The inhibitor potency of the exemplified compounds was determined in a fluorescence based guanine nucleotide exchange assay, which measures the exchange of bodipy-GDP (fluorescently labeled GDP) for GppNHp (Non-hydrolyzable GTP analog) to generate the active state of KRAS in the presence of SOS1 (guanine nucleotide exchange factor). Inhibitors were serially diluted in DMSO and a volume of 0.1 μL was transferred to the wells of a black low volume 384-well plate. 5 µL/well volume of bodipy-loaded KRAS G12D diluted to 2.5 nM in assay buffer (25 mM Hepes pH 7.5, 50 mM NaCl, 10 mM MgCl2 and 0.01% Brij-35) was added to the plate and pre-incubated with inhibitor for 4 h at r.t. Appropriate controls (enzyme with no inhibitor or with a G12D inhibitor) were included on the plate. The exchange was initiated by the addition of a 5 μL/well volume containing 1 mM GppNHp and 300 nM SOS1 in assay buffer. The 10 μL/well reaction concentration of the bodipy-loaded KRAS G12D, GppNHp, and SOS1 were 2.5 nM, 500 μM, and 150 nM, respectively. The reaction plates were incubated at r.t. for 2 h, a time estimated for complete GDP-GTP exchange in the absence of inhibitor. For the KRAS G12V mutant, similar guanine nucleotide exchange assays were used with 2.5 nM as final concentration for the bodipy loaded KRAS proteins and 3 h incubation after adding GppNHp-SOS1 mixture. A cyclic peptide described to selectively bind G12D mutant (Sakamoto et al., BBRC 484.3 (2017), 605-611) or internal compounds with confirmed binding were used as positive controls in the assay plates. Fluorescence intensities were measured on a PheraStar plate reader instrument (BMG Labtech) with excitation at 485 nm and emission at 520 nm.
(§2) Either GraphPad prism or Genedata Screener SmartFit was used to analyze the data. The IC50 values were derived by fitting the data to a four parameter logistic equation producing a sigmoidal dose-response curve with a variable Hill coefficient.
(§3) The symbol “†” indicates IC50≤100 nM, “††” indicates IC50>100 nM but ≤1 μM; and “†††” indicates IC50 is >1 μM but ≤5 μM, “††††” indicates IC50 is >5 µM but ≤10 μM. “NA” indicates IC50 not available.

KRAS G12D = KRAS G12D (Homo sapiens, UniProt P01116, G12D); assay: GDP-GTP exchange assay (bodipy-GDP/GppNHp, SOS1), KRAS G12D; type: biochemical; details: 2.5 nM bodipy-loaded KRAS G12D, 4 h pre-incubation, 2 h reaction with GppNHp and SOS1; for certain compounds the most potent isomer is quoted; read-out: KRAS_G12D exchange assay IC50
Sequence of KRAS G12D (P01116 1-188 isoform P01116-2 G12D): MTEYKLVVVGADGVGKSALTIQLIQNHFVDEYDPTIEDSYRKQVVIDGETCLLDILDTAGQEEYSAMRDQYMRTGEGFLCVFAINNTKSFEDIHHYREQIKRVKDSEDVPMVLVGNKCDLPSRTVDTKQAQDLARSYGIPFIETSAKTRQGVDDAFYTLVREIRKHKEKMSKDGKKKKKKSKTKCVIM
Protocol: as §1, §2, §3

Sequence of KRAS G12V (P01116 1-188 isoform P01116-2 G12V): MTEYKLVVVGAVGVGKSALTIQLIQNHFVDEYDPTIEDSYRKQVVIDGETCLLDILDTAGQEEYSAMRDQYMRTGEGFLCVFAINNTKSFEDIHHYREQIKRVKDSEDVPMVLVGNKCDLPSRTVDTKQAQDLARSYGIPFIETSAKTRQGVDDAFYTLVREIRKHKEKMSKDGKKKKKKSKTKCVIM

IC50 (KRAS G12V)	IC50 (KRAS G12D)	SMILES
≤ 100 nM	≤ 100 nM	Cc1nc2c(F)c(-c3cccc(Cl)c3Cl)c(CCC#N)cc2c2c1cc([C@H]1[C@H]3C[C@H](C[C@H]3F)N1C(=O)C1CC1)n2C1[C@H]2CN[C@@H]1C2 (stereo partly drawn) [Example 17, 3-(1-((1R,4R)-2-azabicyclo[2.1.1]hexan-5-yl)-2-((1R,3R,4R,5R)-2-(cyclopropanecarbonyl)-5-fluoro-2-azabicyclo[2.2.1]heptan-3-yl)-7-(2,3-dichlorophenyl)-6-fluoro-4-methyl-1H-pyrrolo[3,2-c]quinolin-8-yl)propanenitrile]
≤ 100 nM	≤ 100 nM	Cc1nc2c(F)c(-c3cccc(Cl)c3Cl)c(CCC#N)cc2c2c1cc([C@H]1[C@H]3C[C@H](C[C@@H]3C)N1C(=O)C1CC1)n2C1[C@H]2CN[C@@H]1C2 (stereo partly drawn) [Example 19, 3-(1-((1R,4R)-2-azabicyclo[2.1.1]hexan-5-yl)-2-((1S,3R,4S,5S)-2-(cyclopropanecarbonyl)-5-methyl-2-azabicyclo[2.2.1]heptan-3-yl)-7-(2,3-dichlorophenyl)-6-fluoro-4-methyl-1H-pyrrolo[3,2-c]quinolin-8-yl)propanenitrile]
≤ 100 nM	≤ 100 nM	Cc1nc2c(F)c(-c3cccc(Cl)c3Cl)c(CCC#N)cc2c2c1cc([C@H]1[C@H]3C[C@H](C[C@@H]3OC(F)F)N1C(=O)C1CC1)n2C1[C@H]2CN[C@@H]1C2 (stereo partly drawn) [Example 30, 3-((7R)-1-((1R,4R)-2-azabicyclo[2.1.1]hexan-5-yl)-2-((1R,3R,4R,5S)-2-(cyclopropanecarbonyl)-5-(difluoromethoxy)-2-azabicyclo[2.2.1]heptan-3-yl)-7-(2,3-dichlorophenyl)-6-fluoro-4-methyl-1H-pyrrolo[3,2-c]quinolin-8-yl)propanenitrile]
≤ 100 nM	≤ 100 nM	COC(=O)N1[C@@H]2C[C@@H]([C@@H](OC(F)(F)F)C2)[C@@H]1c1cc2c(C)nc3c(F)c(-c4cccc(Cl)c4Cl)c(CCC#N)cc3c2n1[C@H]1[C@H]2CN[C@@H]1C2 (atropisomer, axis not shown; (Ra)) [Example 40, Methyl (1R,3R,4R,5S)-3-((Ra)-1-((1R,4R,5S)-2-azabicyclo[2.1.1]hexan-5-yl)-8-(2-cyanoethyl)-7-(2,3-dichlorophenyl)-6-fluoro-4-methyl-1H-pyrrolo[3,2-c]quinolin-2-yl)-5-(trifluoromethoxy)-2-azabicyclo[2.2.1]heptane-2-carboxylate]
≤ 100 nM	≤ 100 nM	Cc1nc2c(F)c(-c3cccc(Cl)c3Cl)c(CCC#N)cc2c2c1cc([C@H]1[C@H]3C[C@H](C[C@@H]3Oc3ccccn3)N1C(=O)C1CC1)n2C1[C@H]2CN[C@@H]1C2 (stereo partly drawn) [Example 28, 3-(1-((1R,4R)-2-azabicyclo[2.1.1]hexan-5-yl)-2-((1R,3R,4R,5S)-2-(cyclopropanecarbonyl)-5-(pyridin-2-yloxy)-2-azabicyclo[2.2.1]heptan-3-yl)-7-(2,3-dichlorophenyl)-6-fluoro-4-methyl-1H-pyrrolo[3,2-c]quinolin-8-yl)propanenitrile]
≤ 100 nM	≤ 100 nM	Cc1nc2c(F)c(-c3cccc(Cl)c3Cl)c(CCC#N)cc2c2c1cc([C@H]1[C@H]3C[C@H](C[C@@H]3OC(F)(F)F)N1C(=O)C1(F)CC1)n2[C@H]1[C@H]2CN[C@@H]1C2 (atropisomer, axis not shown; (Ra)) [Example 42, 3-((Ra)-1-((1R,4R,5S)-2-azabicyclo[2.1.1]hexan-5-yl)-7-(2,3-dichlorophenyl)-6-fluoro-2-((1R,3R,4R,5S)-2-(1-fluorocyclopropane-1-carbonyl)-5-(trifluoromethoxy)-2-azabicyclo[2.2.1]heptan-3-yl)-4-methyl-1H-pyrrolo[3,2-c]quinolin-8-yl)propanenitrile]
≤ 100 nM	≤ 100 nM	Cc1nc2c(F)c(-c3cccc(Cl)c3Cl)c(CCC#N)cc2c2c1cc([C@H]1[C@H]3C[C@H](C[C@@H]3OCc3ccccc3)N1C(=O)C1CC1)n2C1[C@H]2CN[C@@H]1C2 (stereo partly drawn) [Example 29, 3-(2-((1R,3R,4R,5S)-5-(benzyloxy)-2-(cyclopropanecarbonyl)-2-azabicyclo[2.2.1]heptan-3-yl)-1-((1R,4R)-2-azabicyclo[2.1.1]hexan-5-yl)-7-(2,3-dichlorophenyl)-6-fluoro-4-methyl-1H-pyrrolo[3,2-c]quinolin-8-yl)propanenitrile]
5000 to 10000 nM	5000 to 10000 nM	Cc1nc2c(F)c(-c3cccc(Cl)c3Cl)c(CCC#N)cc2c2c1cc([C@H]1[C@@H]3C[C@@H]([C@@H]4C[C@@H]43)N1C(=O)C1CC1)n2C1C2CNC1C2 (stereo partly drawn) [Example 26, 3-(1-(2-azabicyclo[2.1.1]hexan-5-yl)-2-((1R,2S,4R,5S,7R)-6-(cyclopropanecarbonyl)-6-azatricyclo[3.2.1.02,4]octan-7-yl)-7-(2,3-dichlorophenyl)-6-fluoro-4-methyl-1H-pyrrolo[3,2-c]quinolin-8-yl)propanenitrile]
≤ 100 nM	≤ 100 nM	COC(=O)N1[C@@H]2C[C@@H]([C@@H](OC(F)F)C2)[C@@H]1c1cc2c(C)nc3c(F)c(-c4cccc(Cl)c4Cl)c(CCC#N)cc3c2n1[C@H]1[C@H]2CN[C@@H]1C2 (atropisomer, axis not shown; (Ra)) [Example 39, Methyl (1R,3R,4R,5S)-3-((Ra)-1-((1R,4R,5S)-2-azabicyclo[2.1.1]hexan-5-yl)-8-(2-cyanoethyl)-7-(2,3-dichlorophenyl)-6-fluoro-4-methyl-1H-pyrrolo[3,2-c]quinolin-2-yl)-5-(difluoromethoxy)-2-azabicyclo[2.2.1]heptane-2-carboxylate]
≤ 100 nM	≤ 100 nM	Cc1nc2c(F)c(-c3cccc(Cl)c3Cl)c(CCC#N)cc2c2c1cc([C@H]1[C@H]3C[C@H](C[C@@H]3OCc3ccccc3)N1C(=O)C1CC1)n2[C@H]1[C@H]2CN[C@@H]1C2 (atropisomer, axis not shown; (Ra)) [Example 6, 3-((Ra)-2-((1R,3R,4R,5S)-5-(Benzyloxy)-2-(cyclopropanecarbonyl)-2-azabicyclo[2.2.1]heptan-3-yl)-1-((1R,4R,5S)-2-azabicyclo[2.1.1]hexan-5-yl)-7-(2,3-dichlorophenyl)-6-fluoro-4-methyl-1H-pyrrolo[3,2-c]quinolin-8-yl)propanenitrile]
≤ 100 nM	≤ 100 nM	COC(=O)N1[C@@H]2C[C@@H]([C@@H](C(F)F)C2)[C@@H]1c1cc2c(C)nc3c(F)c(-c4cccc(Cl)c4Cl)c(CCC#N)cc3c2n1[C@H]1[C@H]2CN[C@@H]1C2 (atropisomer, axis not shown; (Ra)) [Example 43, Methyl (1R,3R,4S,5S)-3-((Ra)-1-((1R,4R,5S)-2-azabicyclo[2.1.1]hexan-5-yl)-8-(2-cyanoethyl)-7-(2,3-dichlorophenyl)-6-fluoro-4-methyl-1H-pyrrolo[3,2-c]quinolin-2-yl)-5-(difluoromethyl)-2-azabicyclo[2.2.1]heptane-2-carboxylate]
–	≤ 100 nM	CO[C@H]1C[C@H]2C[C@@H]1[C@H](c1cc3c(C)nc4c(F)c(-c5cccc(Cl)c5Cl)c(CCC#N)cc4c3n1[C@H]1[C@H]3CN[C@@H]1C3)N2C(=O)C1CC1 (atropisomer, axis not shown; (Ra)) [Example 1, 3-((Ra)-1-((1R,4R,5S)-2-Azabicyclo[2.1.1]hexan-5-yl)-2-((1R,3R,4R,5S)-2-(cyclopropanecarbonyl)-5-methoxy-2-azabicyclo[2.2.1]heptan-3-yl)-7-(2,3-dichlorophenyl)-6-fluoro-4-methyl-1H-pyrrolo[3,2-c]quinolin-8-yl)propanenitrile]
–	≤ 100 nM	Cc1nc2c(F)c(-c3cccc(Cl)c3Cl)c(CCC#N)cc2c2c1cc([C@H]1[C@H]3C[C@H](C[C@@H]3OC(F)F)N1C(=O)C1(F)CC1)n2[C@H]1[C@H]2CN[C@@H]1C2 [Example 35, 3-(1-((1R,4R,5S)-2-Azabicyclo[2.1.1]hexan-5-yl)-7-(2,3-dichlorophenyl)-2-((1R,3R,4R,5S)-5-(difluoromethoxy)-2-(1-fluorocyclopropane-1-carbonyl)-2-azabicyclo[2.2.1]heptan-3-yl)-6-fluoro-4-methyl-1H-pyrrolo[3,2-c]quinolin-8-yl)propanenitrile]
